# Experimental data taken from the NIST ThermoML archive (doi:10.1016/j.fluid.2006.06.022).
# Numbers after ± are expanded uncertainties.
# Conditions: Liquid, Ebulliometric method (Recirculating still)
vapor or sublimation pressure (313.15 K),vapor or sublimation pressure (323.15 K),vapor or sublimation pressure (333.15 K),vapor or sublimation pressure (343.15 K),vapor or sublimation pressure (353.15 K),vapor or sublimation pressure (363.15 K),SMILES
1374 ± 6 kPa,1712 ± 8 kPa,2115 ± 9 kPa,2586 ± 11 kPa,3151 ± 14 kPa,3767 ± 16 kPa,CCC [propane]
1831 ± 9 kPa,2307 ± 10 kPa,2874 ± 13 kPa,,,,"CC(F)(F)F [1,1,1-trifluoroethane]"
